The results in this text go back to ChEMBL document CHEMBL1157763, “Structure-activity relationships of fluorinated (E)-3-((6-methylpyridin-2-yl)ethynyl)cyclohex-2-enone-O-methyloxime (ABP688) derivatives and the discovery of a high affinity analogue as a potential candidate for imaging metabotropic glutamate recepors subtype 5 (mGluR5) with positron emission …” (J Med Chem, 2010).

In data set [1] the target is T1, Metabotropic glutamate receptor 5 (Rattus norvegicus, UniProt P31424). Put plainly: Displacement of [3H]M-MPEP from mGluR5 in Sprague-Dawley rat brain P2 membrane after 45 mins by beta counting. It counts as tissue-based.
The target in data set [2] is T1, Metabotropic glutamate receptor 5. Put plainly: Binding affinity to mGluR5 ligand binding site 2 in Sprague-Dawley rat brain P2 membrane after 45 mins by gamma counting. Format: tissue-based.
The target is the same in data set [3]. Put plainly: Binding affinity to mGluR5 ligand binding site 1 in Sprague-Dawley rat brain P2 membrane after 45 mins by gamma counting. It counts as tissue-based.
Data set [4] in a line: Lipophilicity, log P after 15 mins by shake-flask method. Format: physicochemical. The conditions noted are these: octanol/water.
Data set [5] deals with Metabotropic glutamate receptor 5 (Rattus norvegicus) (UniProt P31424). Put plainly: Binding affinity to mGluR5 ligand binding site 1 in Sprague-Dawley rat brain P2 membrane assessed per mg of protein after 45 mins by gamma counting. It counts as tissue-based. The conditions noted are these: tested as the 18F-labelled form.
Data set [6] has the same target. Put plainly: Binding affinity to mGluR5 ligand binding site 2 in Sprague-Dawley rat brain P2 membrane assessed per mg of protein after 45 mins by gamma counting. It counts as tissue-based. The conditions noted are these: tested as the 18F-labelled form.

Molecules are shown by their SMILES.

T1 sequence (P31424 whole entry): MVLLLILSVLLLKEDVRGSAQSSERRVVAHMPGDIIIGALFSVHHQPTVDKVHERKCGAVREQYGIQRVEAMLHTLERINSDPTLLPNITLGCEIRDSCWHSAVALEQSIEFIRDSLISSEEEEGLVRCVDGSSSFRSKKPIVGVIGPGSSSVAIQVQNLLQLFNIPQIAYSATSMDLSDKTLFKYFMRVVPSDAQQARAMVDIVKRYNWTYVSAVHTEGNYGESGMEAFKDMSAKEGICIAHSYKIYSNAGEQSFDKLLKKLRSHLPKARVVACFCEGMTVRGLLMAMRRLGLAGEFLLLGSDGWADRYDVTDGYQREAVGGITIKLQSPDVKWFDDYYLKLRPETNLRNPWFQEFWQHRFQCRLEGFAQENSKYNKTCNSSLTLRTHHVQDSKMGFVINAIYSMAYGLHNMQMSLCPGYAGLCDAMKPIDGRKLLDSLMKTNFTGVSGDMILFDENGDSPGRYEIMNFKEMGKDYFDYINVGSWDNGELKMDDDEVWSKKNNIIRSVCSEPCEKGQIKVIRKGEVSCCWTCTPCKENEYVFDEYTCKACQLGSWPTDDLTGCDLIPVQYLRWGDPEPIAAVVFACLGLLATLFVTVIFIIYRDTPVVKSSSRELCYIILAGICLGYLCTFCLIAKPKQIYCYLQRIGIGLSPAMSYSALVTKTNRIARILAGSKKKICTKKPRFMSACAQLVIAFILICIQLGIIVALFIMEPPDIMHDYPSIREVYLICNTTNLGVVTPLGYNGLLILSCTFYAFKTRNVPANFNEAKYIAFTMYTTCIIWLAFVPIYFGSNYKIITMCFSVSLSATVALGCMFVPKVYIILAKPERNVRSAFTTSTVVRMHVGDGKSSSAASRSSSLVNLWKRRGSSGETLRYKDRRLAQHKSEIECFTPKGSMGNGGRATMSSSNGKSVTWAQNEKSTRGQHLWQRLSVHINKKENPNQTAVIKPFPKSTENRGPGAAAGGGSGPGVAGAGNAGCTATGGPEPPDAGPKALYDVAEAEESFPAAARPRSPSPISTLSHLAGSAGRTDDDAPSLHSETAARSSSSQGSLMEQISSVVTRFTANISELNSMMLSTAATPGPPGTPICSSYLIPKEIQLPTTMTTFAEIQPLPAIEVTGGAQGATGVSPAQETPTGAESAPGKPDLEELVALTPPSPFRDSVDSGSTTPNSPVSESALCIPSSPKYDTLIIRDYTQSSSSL
Sequence of Metabotropic glutamate receptor 5 (Rattus norvegicus) (P31424 21-1203 limits assumed): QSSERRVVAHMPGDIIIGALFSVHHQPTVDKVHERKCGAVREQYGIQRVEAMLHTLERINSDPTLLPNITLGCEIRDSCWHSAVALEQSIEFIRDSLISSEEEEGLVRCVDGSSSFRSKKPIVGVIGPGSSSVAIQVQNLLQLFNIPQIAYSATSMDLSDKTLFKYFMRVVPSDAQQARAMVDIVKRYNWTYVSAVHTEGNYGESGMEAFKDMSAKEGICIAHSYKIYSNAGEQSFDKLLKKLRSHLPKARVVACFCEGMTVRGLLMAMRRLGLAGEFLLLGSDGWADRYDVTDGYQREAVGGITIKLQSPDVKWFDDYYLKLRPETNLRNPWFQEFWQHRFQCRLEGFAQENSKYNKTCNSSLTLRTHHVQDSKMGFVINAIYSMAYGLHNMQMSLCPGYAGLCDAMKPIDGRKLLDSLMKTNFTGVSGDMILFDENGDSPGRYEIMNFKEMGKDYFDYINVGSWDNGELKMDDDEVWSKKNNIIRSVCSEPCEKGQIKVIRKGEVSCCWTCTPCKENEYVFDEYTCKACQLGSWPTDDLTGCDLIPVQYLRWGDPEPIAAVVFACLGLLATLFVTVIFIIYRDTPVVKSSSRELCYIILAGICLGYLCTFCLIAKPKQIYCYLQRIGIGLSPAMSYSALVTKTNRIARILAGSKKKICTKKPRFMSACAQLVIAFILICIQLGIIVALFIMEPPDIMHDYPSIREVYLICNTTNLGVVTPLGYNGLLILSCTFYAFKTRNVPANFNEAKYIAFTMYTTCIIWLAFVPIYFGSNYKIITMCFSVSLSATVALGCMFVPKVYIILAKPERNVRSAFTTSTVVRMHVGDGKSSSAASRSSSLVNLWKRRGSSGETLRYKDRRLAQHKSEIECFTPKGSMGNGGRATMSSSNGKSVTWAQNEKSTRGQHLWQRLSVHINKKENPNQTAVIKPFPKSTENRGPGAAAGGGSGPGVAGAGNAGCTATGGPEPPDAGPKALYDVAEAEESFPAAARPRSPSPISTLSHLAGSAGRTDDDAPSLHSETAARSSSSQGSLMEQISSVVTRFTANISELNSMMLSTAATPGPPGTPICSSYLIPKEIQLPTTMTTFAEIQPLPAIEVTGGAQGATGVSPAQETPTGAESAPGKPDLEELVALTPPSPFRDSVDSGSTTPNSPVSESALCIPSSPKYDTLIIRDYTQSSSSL

With `FCCOCO/N=C1/C=C(C#Cc2ccccn2)CCC1`, in data set [1], the affinity corresponds to a Ki of 8.41 nM.
The same measure, in the same setting: next, `FCCCOCO/N=C1/C=C(C#Cc2ccccn2)CCC1`: 5.42 nM; `Fc1cccc(O/N=C2\C=C(C#Cc3ccccn3)CCC2)n1`: 44 nM.
`CO/N=C1/C=C(C#Cc2ccccn2)CCC1` returned a Ki in data set [1] of 2.2 nM.
For the compound `Fc1cccc(O/N=C2/C=C(C#Cc3ccccn3)CCC2)n1`, in data set [1], the inhibition constant Ki came out at 9.15 nM.
Regarding `[18F]CCOCCO/N=C1/C=C(C#Cc2ccccn2)CCC1`, the Kd in data set [2] is 13.7 nM; in data set [3] it was 0.6 nM.
With `Cc1cccc(C#CC2=C/C(=N/Oc3cccc(F)n3)CCC2)n1`, in data set [1], the inhibitory constant (Ki) came to 46.8 nM.
Still for that read-out and setting: the value for `CO/N=C1/C=C(C#Cc2ccncc2)CCC1` was 54.8 nM; that for `N#Cc1ccc(F)cc1O/N=C1/C=C(C#Cc2ccccn2)CCC1` was 73.4 nM.
In data set [4], `Cc1cccc(C#CC2=C/C(=N/OCCOCCF)CCC2)n1` returned a logP at 0.25 h of 2.1. The compound also came in with a Ki in data set [1] of 26.8 nM.
In turn, `N#Cc1ccc(O/N=C2/C=C(C#Cc3ccccn3)CCC2)cc1F` showed an inhibition constant (Ki) in data set [1] of 56.1 nM.
On to `N#Cc1ccc(O/N=C2\C=C(C#Cc3ccccn3)CCC2)cc1F`, for which, in data set [1], the affinity, expressed as Ki, was 49.8 nM.
Take `FCCOCCO/N=C1/C=C(C#Cc2ccccn2)CCC1`: the Bmax turned out to be 470 fmol in data set [5] and 4 pmol in data set [6]. This compound came in with a logP at 0.25 h in data set [4] of 1.7. Moreover, the inhibitory constant (Ki) in data set [1] worked out at 3.8 nM.
Regarding `CO/N=C1/C=C(C#Cc2cccc(C)n2)CCC1`, in data set [4], the logP at 0.25 h was determined as 2.4. In addition, affinity in data set [1] was put at a Ki of 4.4 nM.
As to `CO/N=C1/C=C(C#Cc2cccnc2)CCC1`, affinity in data set [1] was put at a Ki of 252 nM.
`Fc1cccnc1O/N=C1/C=C(C#Cc2ccccn2)CCC1`: in data set [1], the inhibitory constant (Ki) came out at 4.01 nM.
